Data taken from US8288378B2, “Phosphoinositide modulation for the treatment of neurodegenerative diseases” (The Trustees of Columbia University in the City of New York, priority 2006, dated 2012).

Legend:
PC12 cells = test: PIP2 sensor GFP-PHPLCδ1 plasma membrane/cytosol localization; assay type: cell-based; conditions: for GFP-PHPLCδ1 probe localization: oAβ42, 2 μM ionomycin, Aβ42Rev
Experimental: Confocal microscopy. […] Cells have been analyzed after being treated for different time lengths: 0, 10 minutes, 30 minutes and 120 minutes. Cells were washed in phosphate buffer and fixed with 4 percent paraformaldehyde. Confocal z-stack images (0.5 μm) of PC12 cells were obtained using Nikon EZ-C1.2.30 confocal microscope, (×100) oil immersion objective. Quantification of GFP intensity was calculated using the ImageJ software: for each cell in a given image, a line intensity profile across the cell was obtained. The relative decrease in plasma membrane localization was calculated as the ratio between the plasma membrane fluorescence intensity and the average cytosolic fluorescence intensity. The average of the ratio was reported in the graph.
PC12 cells were cultured in RPMI media supplemented with 1 mM glutamine, 5% FBS, 10% horse serum and penicillin, streptomycin. The day before transfection, PC12 cells were split 50% and plated on poly-D-lysine coated coverslips. Cells were transfected with Lipofectamine 2000 as per the manufacturer's protocol with GFP-PHPLCδ1. After 16-24 hours, cells were treated as indicated for 30 minutes in conditioned media. Cells were then briefly washed in PBS and fixed for 20 minutes in 4% paraformaldehyde. Cells were then washed in 0.1M glycine and twice in PBS for 5 minutes each. Cells were mounted using Vectashield. Images were collected using a con-focal microscope and the plot profile was analyzed with ImageJ 1.37v. The ratio of the fluorescence profiles of the plasma membrane and the cytosol were calculated and deemed to represent translocation of the PIP2 probe GFP-PH-PLCδ1 (72).

[1] = tested on: PI4KIIα-overexpressing cells; test: Aβ42 levels in PI4KIIα-overexpressing cells; assay type: cell-based
Experimental: Since (20S)Rg3 potentiates PI4KIIα activity (conversion from PI to PIP), it was determined whether the increase in PI4KIIα activity exerts similar effects on Aβ42 generation as observed in the (20S)Rg3-treated cells. Overexpression of PI4KIIα leads to increased protein levels of PI4KIIα and increased PI 4-kinase activity as measured by lipid kinase assay. […] Thus, increased levels of the (20S)Rg3 target protein PI4KIIα may amplify the effects of the Aβ42-lowering activity of (20S)Rg3.

[2] = tested on: CA1 region of the hippocampus; test: Long-term potentiation in adult hippocampal slices (CA1, tetanic stimulation of Schaeffer collateral pathway); parameters: species or system mouse
From the text: Long-term potentiation (LTP) was induced in the CA1 region of the hippocampus through tetanic stimulation of the Schaeffer collateral pathway.

PI4KIIα = target: T1, PI4KIIα (Homo sapiens, UniProt Q9BTU6); test: PI4KIIα lipid kinase activity assay with TLC analysis; assay type: biochemical
T1 construct: made in house
T1 sequence (Q9BTU6 whole entry): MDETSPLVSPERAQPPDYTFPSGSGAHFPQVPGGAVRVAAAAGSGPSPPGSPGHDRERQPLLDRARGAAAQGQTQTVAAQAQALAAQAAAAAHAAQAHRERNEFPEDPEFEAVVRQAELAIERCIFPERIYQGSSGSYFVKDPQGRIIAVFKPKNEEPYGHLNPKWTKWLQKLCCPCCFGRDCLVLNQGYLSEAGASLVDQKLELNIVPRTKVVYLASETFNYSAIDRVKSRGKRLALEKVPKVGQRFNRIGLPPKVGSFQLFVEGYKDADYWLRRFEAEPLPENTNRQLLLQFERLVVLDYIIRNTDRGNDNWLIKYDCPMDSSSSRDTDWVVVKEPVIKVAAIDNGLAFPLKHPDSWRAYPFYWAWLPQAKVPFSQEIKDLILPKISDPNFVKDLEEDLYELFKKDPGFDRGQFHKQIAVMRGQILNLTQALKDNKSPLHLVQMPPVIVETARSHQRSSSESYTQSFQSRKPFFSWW
Experimental: Lipid kinase assay and thin layer chromatography. In vitro lipid phosphorylation assays on post-nuclear supernatant of HEK293, Neuro2a or CHO cells expressing either WT or FAD mutant PS1 and PS2, were carried out as previously described (70). Briefly, 100 μg protein from the supernatant were mixed with 2.5 μl ATP (final: 50 μM), 2.5 μl CaCl2 (final: 50 μM), 27.0 μl EGTA-free kinase buffer (25 mM Hepes, 100 mM KC1, 2.5 mM MgCl2) and 0.5 μl gamma ATP (final 100 nCi/μl) and samples incubated at 37° C. for 15 min. Reaction products were extracted and analyzed by thin layer chromatography (TLC) silica plate (solvent: 64—acetone 30—methanol 24—acetic acid 32—water 14 (v/v)) and visualized by autoradiography.
Mammalian expression of a construct encoding either wild-type (IIα) or the kinase-dead mutant (IIα-KD) forms of PI4KIIα (HA-tagged) were transfected into CHO cells. The enzyme was immuno-isolated using anti-HA affinity beads from cell extracts. The purified PI4KIIα proteins were subjected to a lipid kinase activity assay and TLC analysis using PI as a substrate (FIG. 10C). PI4KIIα, but not the kinase-dead mutant, enhanced the incorporation of [γ32P]-ATP into PIP (FIG. 10C,D).

HeLa cells = test: Lipid raft fractionation and Western blot of PS1 C-terminal fragments; assay type: cell-based
mouse cortical neurons = test: Phosphoinositide / anionic phospholipid levels in cultured cortical neurons (HPLC with suppressed conductivity); conditions: for PIP2 levels after Ca2+ ionophore: 2 μM; for effect of Ca2+ chelation on oAβ42-induced PIP2 decrease: oAβ42 for 60 min, EGTA 2 mM
Experimental: HPLC Lipid Analysis. Cells grown in 15-cm^2 dishes were scraped in 0.75 ml ice-cold MeOH: 1M HCl (1:1) supplemented with 2 mM AlCl3. Lipids were then extracted and deacylated by incubation with 0.5 ml methylamine reagent (MeOH:40% methylamine in water:n-butanol:water 47:36:9:8) at 50° C. for 45 min. The aqueous phase was dried, resuspended in 0.5 ml of n-butanol: petroleum ether:ethyl formate (20:40:1), and extracted twice with an equal volume of water. Aqueous extracts were dried, resuspended in water, and subjected to anion-exchange HPLC on an Tonpac AS11-HC column (Dionex). Negatively charged glycerol head groups were eluted with a 1.5-86 mM KOH gradient and detected online by suppressed conductivity 75 in a Dionex Ion Chromatography system equipped with an ASRS-ultra II self-regenerating suppressor. Individual peaks were identified and peak areas were calculated using the Chromeleon software (Dionex). Using deacylated anionic phospholipids as standards, lipid masses were calculated and expressed as molar fractions of total anionic phospholipids present in the sample (see Ref. 69).
2-week-old, cultured mouse cortical neurons were incubated with three different Aβ42 preparations (monomers, soluble oligomers, and fibrils) at concentrations of 200 nM. The levels of PIP2 were measured by conductance-based HPLC quantitation.
This preparation contains a mixture of monomers, trimers and tetramers as well as traces of dimers and high molecular weight oligomers, as described previously. Potential effects of this preparation were investigated either after an acute (0-120 min) or a subchronic treatment (72 h). The levels of phosphoinositides as well as a variety of other anionic phospholipids were measured and quantified in neuronal extracts using HPLC combined with suppressed conductivity detection (69, 71).
Cell culture. […] Primary cultures from cortical neurons were generated from newborn mice as described (126). Briefly, cortices were dissected out, trypsinized for 45 minutes, and then dissociated with a Pasteur pipette and plated on poly-ornithine coated 10 mm dishes at a density of 25,000 cells/cm^2 in Neurobasal-A medium containing 1 mM kyneurenic acid to reduce enhanced synaptic transmission due to the high density of the cultures.
Lipid measurements. Cultures were scrapped on a methanol:1N HCl 1:1 buffer supplemented with 2 mM AlCl3. Ice-cold chloroform (0.4 ml) was then added, and samples were vortexed for 1 min. The solvent phase was washed with 1 ml. methanol:2 mM oxalic acid (1:0.9 vol/vol) and dried under a flow of nitrogen.

PIPK1γ = target: T2, PIPK1γ (Homo sapiens, UniProt O60331); test: PIPK1γ activity assay; assay type: biochemical; conditions: 50 μM
T2 construct: GST
T2 sequence (O60331 whole entry): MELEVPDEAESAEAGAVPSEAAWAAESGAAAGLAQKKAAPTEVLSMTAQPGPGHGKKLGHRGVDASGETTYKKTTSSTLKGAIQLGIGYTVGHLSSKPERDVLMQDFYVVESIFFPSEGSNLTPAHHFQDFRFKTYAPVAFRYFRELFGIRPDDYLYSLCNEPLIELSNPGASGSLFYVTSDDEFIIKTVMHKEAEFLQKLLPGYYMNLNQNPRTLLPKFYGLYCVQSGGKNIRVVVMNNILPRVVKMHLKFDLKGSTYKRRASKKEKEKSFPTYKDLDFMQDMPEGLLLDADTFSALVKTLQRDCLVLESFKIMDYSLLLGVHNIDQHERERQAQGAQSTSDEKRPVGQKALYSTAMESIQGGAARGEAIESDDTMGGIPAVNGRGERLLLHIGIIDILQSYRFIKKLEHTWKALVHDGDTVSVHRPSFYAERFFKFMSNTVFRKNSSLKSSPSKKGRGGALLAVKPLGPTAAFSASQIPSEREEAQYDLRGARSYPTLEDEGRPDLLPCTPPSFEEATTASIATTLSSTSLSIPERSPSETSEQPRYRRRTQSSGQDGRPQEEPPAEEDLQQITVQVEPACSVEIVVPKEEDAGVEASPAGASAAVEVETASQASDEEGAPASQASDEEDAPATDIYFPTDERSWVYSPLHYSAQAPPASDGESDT
From the text: Thus, (20S)Rg3 serves as an activator of PI4KIIα, resulting in the increase in the steady-state levels of PIP and subsequently the levels of PIP2.

APP/PS1 mice = test: Radial-arm water-maze in APP/PS1 mice; assay type: in vivo, mouse; conditions: i.p., 10 mg/kg, three weeks, 3 month-old APP/PS1 mice
Experimental: Therefore experiments were performed to determine whether (20S)Rg3 can improve the memory impairments in an AD mouse model. (20S)Rg3 was administered for three weeks (i.p., 10 mg/kg) to 3 month-old APP/PS1 mice and age-matched littermate controls. Mice were then subjected to behavioral testing in the radial-arm water-maze paradigm (74).

Aβ42 = target: T3, Aβ42 (Homo sapiens, UniProt P05067); test: Oligomerization process of Aβ42
T3 construct: Synthetic Aβ (1-42) peptide was purchased from American Peptide; purchased American Peptide (Sunnyvale, Calif.); host or cells: synthetic peptide
T3 sequence (P05067 672-713 limits assumed): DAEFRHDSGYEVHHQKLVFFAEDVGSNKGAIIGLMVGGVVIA

[3] = tested on: PI4KIIα +/− ES-derived neurons; test: Aβ42 generation and PIP synthesis in PI4KIIα +/− ES cell-derived pyramidal neurons; assay type: cell-based, mouse
From the text: Mouse embryonic stem (ES) cell-derived pyramidal neurons that harbor the heterozygote knockout of the PI4KIIα allele (PI4KIIα +/−; purchased from Sanger Institute Gene Trap Resource; http://www.sanger.ac.uk/PostGenomics/genetrap/) were then used to further study the role for PI4KIIα in Aβ42 generation in neurons. Differentiation and morphology of pyramidal neurons from PI4KIIα heterozygote (+/−) ES cells were indistinguishable from those from match wild-type ES cells (representative neuronal staining is shown in FIGS. 14A and B). […] Aβ42 generation was substantially elevated in the neurons derived from PI4KIIα +/−ES cells.

[4] = tested on: N2a cells stably expressing human APP with the Swedish mutation; test: Aβ42/Aβ40 production in N2a cells stably expressing human APP with the Swedish mutation; assay type: cell-based; conditions: 6 hours treatment, read-out: EC50, inhibition of production of Aβ42 as well as Aβ40
Experimental: N2a cells stably expressing human APP with the Swedish mutation were grown in DMEM-supplemented with 50% Opti-MEM, 10% FBS, penicillin, streptomycin, and G418. Cells were grown to 80-90% confluence and treated for 6 hours with the drugs as indicated in 900 μl media. The conditioned media was harvested and centrifuged for 15 minutes at 14,000 rpm in a table top Eppendorf centrifuge 5417R. The adherent cells were washed two times with ice cold PBS and lysed in 100 μl super IP buffer (10 mM Tris Cl, pH, 7.4, 150 mM NaCl, 2 mM EDTA, 1% Triton X-100, 0.25% NP-40, protease inhibitors). Cell lysates were scraped and incubated for 15 minutes on ice before centrifugation at 14,000 rpm in a table-top Eppendorf centrifuge 5417R. Cleared conditioned media and lysates were stored at −80° C. until use. Aβ 42 and Aβ40 were quantified with the commercially available kit from Biosource as indicated in the protocol. Protein concentration of the cell lysate was determined using the BCA assay from Pierce.
KU-55933 is a small molecule inhibitor of ATM kinase as well as PI3K family members (FIG. 22). […] Aβ 42 and Aβ40 were quantified with the commercially available kit from Biosource as indicated in the protocol. Protein concentration of the cell lysate was determined using the BCA assay from Pierce.

[5] = previous studies (refs 113, 114); cited from earlier work
[6] = tested on: N2a cells stably expressing APP harboring the Swedish mutation; test: Caspase 3 cleavage Western blot; assay type: cell-based; conditions: 6 hours; concentrations which decreased Aβ42 generation
Experimental: Western blot analysis of full length APP and caspase3 was conducted on 30 μg of lysate collected as described above from N2a cells stably expressing APP harboring the Swedish mutation. Cells were treated for 6 hours with KU-55933 at concentrations indicated. APP was detected using the LN27 antibody from Zymed and caspase 3 full length and cleavage product were probed using the caspase 3 antibody from Cell Signaling Technology.

CC(C)=CCC[C@](C)(O)[C@H]1CC[C@]2(C)[C@@H]1[C@H](O)C[C@@H]1[C@@]3(C)CC[C@H](O[C@@H]4O[C@H](CO)[C@@H](O)[C@H](O)[C@H]4O[C@@H]4O[C@H](CO)[C@@H](O)[C@H](O)[C@H]4O)C(C)(C)[C@@H]3CC[C@]12C [(20S)Rg3]
Aβ oligomer-induced loss of plasma membrane fluorescence (PC12 cells; co-incubation with Aβ oligomers): prevented the loss of the plasma membrane fluorescence | Aβ42 reduction [1]: conferred additive effects on Aβ42 reduction | LTP on co-incubation with Aβ oligomers ([2]; 10 μM): resulted in normal LTP | PI4KIIα activity (PI4KIIα; 50 μM with purified enzyme): enhanced PI4KIIα activity in a dose-dependent manner | PIP and PIP2 formation with both PI4KIIα and PIPK1γ (PI4KIIα; both enzymes incubated with compound): led to an increase of both PIP and PIP2 | lipid raft-associated PS1-CTF levels (HeLa cells; HeLa cells): significantly reduced | total PS-CTF levels (HeLa cells; HeLa cells): unchanged | steady-state levels of PIP and PIP2 (mouse cortical neurons; 100 μM): increased steady-state levels of both PIP and PIP2 | Aβ42 oligomer-induced PIP2 reduction, pre-incubation (mouse cortical neurons; cells pre-incubated with compound): blocked efficiently | oAβ42-induced increase in PA levels (mouse cortical neurons; cultured neurons): inhibited the increase in PA levels | Aβ42 oligomer-induced reduction in PIP2 levels (mouse cortical neurons; treatment / co-treatment of cultured neurons): inhibited the reduction in PIP2 levels | activity of PIPK1γ (PIPK1γ): did not confer any detectable effects | spatial working memory deficits (APP/PS1 mice): dramatically improved spatial working memory deficits | effect on oligomerization process of Aβ42 (Aβ42): no effects on the oligomerization process of Aβ42 | ability to reduce Aβ42 ([3]; PI4KIIα +/− ES-derived neurons): no longer able to reduce Aβ42 | compound-induced PIP synthesis ([3]; PI4KIIα +/− clonal lines AC37 and AD14): substantially reduced

CNc1ccc2oc(C[C@H]3O[C@@]4(CC[C@H]3C)O[C@H]([C@H](C)C(=O)c3ccc[nH]3)[C@H](C)C[C@H]4C)nc2c1C(=O)O [A23187]
PIP2 levels after Ca2+ ionophore (mouse cortical neurons): caused PIP2 levels to decrease

CC(=O)OCOC(=O)CN(CC(=O)OCOC(C)=O)c1ccccc1OCCOc1ccccc1N(CC(=O)OCOC(C)=O)CC(=O)OCOC(C)=O [BAPTA-AM]
effect of Ca2+ chelation on oAβ42-induced PIP2 decrease (mouse cortical neurons): blocked the action of oAβ42 | increase in the levels of PtdIns(4,5)P2 (mouse cortical neurons; vehicle-treated and oAβ42-treated cortical neurons): 2 fold

O=C(O)CN(CCOCCOCCN(CC(=O)O)CC(=O)O)CC(=O)O [EGTA]
effect of Ca2+ chelation on oAβ42-induced PIP2 decrease (mouse cortical neurons): prevented oAβ42 from decreasing PIP2 levels

O=c1cc(-c2cccc3c2Sc2ccccc2S3)oc(N2CCOCC2)c1 [KU-55933]
depletion of PIP2 caused by Aβ42 oligomers (PC12 cells; 30 minutes, concentration comparable to EC50 for Aβ42): rescued the depletion of PIP2 | EC50 [4]: 3.5 µM | cytotoxicity [5]: found not to be cytotoxic | caspase 3 cleavage [6]: did not induce caspase 3 cleavage

COc1ccc2c(c1)CC[C@@H]1[C@@H]2CC[C@]2(C)[C@@H](NCCCCCCN3C(=O)C=CC3=O)CC[C@@H]12 [U73122]
PIP2 levels on oAβ42 treatment in presence of PLC inhibitor (PC12 cells; oAβ42 60 min, inhibitor 0.5 μM): PIP2 levels remained unaffected by oAβ42

C[C@H](CCC(=O)O)C[C@H](C)C[C@H](C)C(=O)/C=C(\O)[C@H](C)C[C@H](C)C/C=C/[C@@H](C)[C@@H](O)[C@@H](C)[C@@H](O)C[C@@H]1CC[C@@](C)([C@H]2CC[C@@](C)([C@@H](C)O)O2)O1 [ionomycin]
GFP-PHPLCδ1 probe localization (PC12 cells): mimicked | PIP2 levels after Ca2+ ionophore (mouse cortical neurons): caused PIP2 levels to decrease

CSc1ccc(/C=C2/C(C)=C(CC(=O)O)c3cc(F)ccc32)cc1 [sulindac sulfide]
association of PS1 fragments with lipid rafts (HeLa cells): did not confer any effects

oAβ42: crude oligomer preparation made from synthetic Aβ42 peptides
GFP-PHPLCδ1 probe localization (PC12 cells): significant disappearance of the probe from the plasma membrane | effect on LTP ([2]; control (Synj1+/+) slices): partially impaired LTP | ATP levels (mouse cortical neurons; 200 nM): normal | effect on PA levels (mouse cortical neurons; 200 nM, 2-week-old cultured mouse cortical neurons): up-regulated | number of apoptotic nuclei (mouse cortical neurons; 3-day treatment, versus vehicle): comparable or slightly less | amount of pyknosis (mouse cortical neurons; 3-day treatment, versus vehicle-treated neurons): undistinguishable from that occurring in vehicle-treated neurons | levels of PtdA (mouse cortical neurons; crude oligomer preparation of synthetic Aβ42, after 120 min): approximately 130 % of control
